Experimental data taken from patent US20260285859A1, “BI-CYCLIC PYRIMIDINE COMPOUNDS, METHODS AND USES THEREOF” (Zeno Management, Inc., priority 2023, published 2026).
pIC50: −log10 of the molar value.

Legend:
[1] = molecular target: T1, PKMYT1 (Homo sapiens, UniProt Q99640); assay: LanthaScreen Eu Kinase Binding Assay, PKMYT1
T1 sequence (Q99640 1-499): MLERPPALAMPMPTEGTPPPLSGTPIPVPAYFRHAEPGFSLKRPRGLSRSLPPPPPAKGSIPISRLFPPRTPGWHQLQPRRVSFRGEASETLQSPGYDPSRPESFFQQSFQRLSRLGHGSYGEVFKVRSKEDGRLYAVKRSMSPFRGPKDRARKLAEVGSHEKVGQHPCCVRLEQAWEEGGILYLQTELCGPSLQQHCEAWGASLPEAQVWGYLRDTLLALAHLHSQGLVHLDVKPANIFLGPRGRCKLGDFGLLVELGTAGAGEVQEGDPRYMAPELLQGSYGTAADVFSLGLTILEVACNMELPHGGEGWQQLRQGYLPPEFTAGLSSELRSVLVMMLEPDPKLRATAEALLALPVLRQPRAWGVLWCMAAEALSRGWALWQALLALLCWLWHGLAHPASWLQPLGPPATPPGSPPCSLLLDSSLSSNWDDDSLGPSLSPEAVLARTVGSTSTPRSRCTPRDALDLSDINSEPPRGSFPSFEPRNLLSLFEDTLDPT
Procedure: (§1) Binding of the tracer to the kinase is detected using a europium-labeled anti-GST antibody, which binds to the fused tag on the kinase protein. […] Inhibitor binding to the kinase competes with tracer binding, resulting in loss of FRET from the donor/acceptor pairs.
(§2) Kinase/Antibody Mixtures and Tracer are diluted to a 2× and 4× working concentration, respectively in this same buffer. […] 0% displacement (no known inhibitor) and 100% displacement (highest concentration of known inhibitor) controls were included on each plate for maximum and minimum Emission Ratio determination, respectively. Dasatinib was used for both PKMYT1 and WEE1 as the known inhibitor.
(§3) IC50 determination was performed using a non-linear regression, variable slope (four parameter), inhibitor v. response equation (Prism 9.0).

[2] = molecular target: WEE1 (Homo sapiens, UniProt P30291); assay: LanthaScreen Eu Kinase Binding Assay, WEE1
Sequence of WEE1 (P30291 whole entry): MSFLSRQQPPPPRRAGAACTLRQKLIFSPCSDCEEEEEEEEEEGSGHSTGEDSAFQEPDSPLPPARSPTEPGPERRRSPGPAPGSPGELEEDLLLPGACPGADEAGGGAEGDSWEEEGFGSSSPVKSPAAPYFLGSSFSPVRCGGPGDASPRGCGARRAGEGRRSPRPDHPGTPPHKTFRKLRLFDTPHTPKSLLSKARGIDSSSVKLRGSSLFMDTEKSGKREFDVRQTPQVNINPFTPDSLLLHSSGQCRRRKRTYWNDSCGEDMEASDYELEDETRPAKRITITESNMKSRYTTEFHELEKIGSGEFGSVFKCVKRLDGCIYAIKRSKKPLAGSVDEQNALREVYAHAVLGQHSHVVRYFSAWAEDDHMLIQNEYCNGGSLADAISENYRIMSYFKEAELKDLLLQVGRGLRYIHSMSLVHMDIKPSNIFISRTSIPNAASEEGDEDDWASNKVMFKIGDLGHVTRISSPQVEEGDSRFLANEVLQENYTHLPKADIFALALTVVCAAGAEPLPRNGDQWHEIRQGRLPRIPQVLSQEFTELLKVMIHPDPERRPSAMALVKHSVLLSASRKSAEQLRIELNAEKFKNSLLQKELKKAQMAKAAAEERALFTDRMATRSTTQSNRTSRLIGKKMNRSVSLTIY
Procedure: as §1, §2, §3

Row | pIC50 [1] | pIC50 [2] | Compound
1 | > 8.00 | 6.00 to 7.00 | Cc1ccc(O)c(C)c1-c1nc(N2CCC(F)(F)C2)cc2c(N)ncnc12 (single isomer, unassigned) [Compound 2-B]
2 | > 8.00 | < 6.00 | Cc1ccc(O)c(C)c1-c1nc(N2CC[C@@H](O)C2)cc2c(N)ncnc12 (single isomer, unassigned) [Compound 3-B]
3 | 7.00 to 8.00 | < 6.00 | Cc1ccc(O)c(C)c1-c1nc(N2CC(F)(F)C2)cc2c(N)ncnc12 (single isomer, unassigned) [Compound 5-B]
4 | > 8.00 | < 6.00 | Cc1ccc(O)c(C)c1-c1nc(N2CCOCC2)cc2c(N)ncnc12 (single isomer, unassigned) [Compound 7-B]
5 | 7.00 to 8.00 | < 6.00 | COCCN(C)c1cc2c(N)ncnc2c(-c2c(C)ccc(O)c2C)n1 (single isomer, unassigned) [Compound 9-B]
6 | > 8.00 | < 6.00 | Cc1ccc(O)c(C)c1-c1nc(N2CCC(O)CC2)cc2c(N)ncnc12 (single isomer, unassigned) [Compound 11-B]
7 | > 8.00 | < 6.00 | Cc1ccc(O)c(C)c1-c1nc(N(C)C(C)C)cc2c(N)ncnc12 (single isomer, unassigned) [Compound 12-B]
8 | 7.00 to 8.00 | < 6.00 | Cc1ccc(O)c(C)c1-c1nc(N2CC[C@](C)(O)C2)cc2c(N)ncnc12 (single isomer, unassigned) [Compound 13-E]
9 | 7.00 to 8.00 | < 6.00 | Cc1ccc(O)c(C)c1-c1nc(NS(C)(=O)=O)cc2c(N)ncnc12 (single isomer, unassigned) [Compound 16-B]
10 | > 8.00 | 6.00 to 7.00 | Cc1ccc(O)c(C)c1-c1nc(-c2cnn(C)c2)cc2c(N)ncnc12 (single isomer, unassigned) [Compound 19-B]
11 | > 8.00 | < 6.00 | COC[C@H]1CCN(c2cc3c(N)ncnc3c(-c3c(C)ccc(O)c3C)n2)C1 (single isomer, unassigned) [Compound 23-B]
12 | 7.00 to 8.00 | < 6.00 | COC[C@@H]1CCN1c1cc2c(N)ncnc2c(-c2c(C)ccc(O)c2C)n1 (single isomer, unassigned) [Compound 24-B]
13 | > 8.00 | < 6.00 | Cc1ccc(O)c(C)c1-c1nc(N(C)CC(F)F)cc2c(N)ncnc12 (single isomer, unassigned) [Compound 28-B]
14 | > 8.00 | < 6.00 | Cc1ccc(O)c(C)c1-c1nc(N(C)CC(F)(F)F)cc2c(N)ncnc12 (single isomer, unassigned) [Compound 29-B]
15 | > 8.00 | < 6.00 | Cc1ccc(O)c(C)c1-c1nc(N(C)CC2CC2)cc2c(N)ncnc12 (single isomer, unassigned) [Compound 30-B]
16 | > 8.00 | < 6.00 | C#Cc1cc2c(N)ncnc2c(-c2c(C)ccc(O)c2C)n1 (single isomer, unassigned) [Compound 33-B]
17 | 6.00 to 7.00 | < 6.00 | Cc1ccc(O)c(C)c1-c1nc(C(=O)N2CCCC2)cc2c(N)ncnc12 (single isomer, unassigned) [Compound 34-B]
18 | 6.00 to 7.00 | < 6.00 | Cc1ccc(O)c(C)c1-c1nc(CC(=O)N2CCOCC2)cc2c(N)ncnc12 (single isomer, unassigned) [Compound 35-B]
19 | 7.00 to 8.00 |  | Cc1ccc(O)c(C)c1-c1nc(C(F)(F)F)cc2c(N)ncnc12 (single isomer, unassigned) [Compound 39-B]
20 | > 8.00 | < 6.00 | Cc1ccc(O)c(C)c1-c1nc(C2CCC2)cc2c(N)ncnc12 (single isomer, unassigned) [Compound 40-B]

Continued, compound first:

Row | Compound | pIC50 [1] | pIC50 [2]
21 | Cc1ccc(O)c(C)c1-c1nc(N(C)CCO)cc2c(N)ncnc12 (racemic) [Compound 47-A, 3-(4-amino-6-((2-hydroxyethyl)(methyl)amino)pyrido[3,4-d]pyrimidin-8-yl)-2,4-dimethylphenol] | 7.00 to 8.00 | < 6.00
22 | CNc1cc2c(N)ncnc2c(-c2c(C)ccc(O)c2C)n1 (single isomer, unassigned) [Compound 1-B] | 7.00 to 8.00 | < 6.00
23 | Cc1ccc(O)c(C)c1-c1nc(N2CC[C@H](O)C2)cc2c(N)ncnc12 (single isomer, unassigned) [Compound 4-B] | 7.00 to 8.00 | < 6.00
24 | Cc1ccc(O)c(C)c1-c1nc(N2CCCC2)cc2c(N)ncnc12 (single isomer, unassigned) [Compound 6-B] | > 8.00 | < 6.00
25 | Cc1ccc(O)c(C)c1-c1nc(N=S(C)(C)=O)cc2c(N)ncnc12 (single isomer, unassigned) [Compound 8-B] | 7.00 to 8.00 | < 6.00
26 | Cc1ccc(O)c(C)c1-c1nc(N(C)C)cc2c(N)ncnc12 (single isomer, unassigned) [Compound 10-B] | > 8.00 | < 6.00
27 | Cc1ccc(O)c(C)c1-c1nc(N[C@H]2C[C@H](O)C2)cc2c(N)ncnc12 (single isomer, unassigned) [Compound 15-B] | 7.00 to 8.00 | < 6.00
28 | Cc1ccc(O)c(C)c1-c1nc(C2CC2)cc2c(N)ncnc12 (single isomer, unassigned) [Compound 18-B] | > 8.00 | < 6.00
29 | Cc1ccc(O)c(C)c1-c1nc(N2CCCC(F)(F)C2)cc2c(N)ncnc12 (single isomer, unassigned) [Compound 20-B] | > 8.00 | 6.00 to 7.00
30 | Cc1ccc(O)c(C)c1-c1nc(N(C)C2CC2)cc2c(N)ncnc12 (single isomer, unassigned) [Compound 21-B] | > 8.00 | 6.00 to 7.00
31 | Cc1ccc(O)c(C)c1-c1nc(N2CC(C)(CO)C2)cc2c(N)ncnc12 (single isomer, unassigned) [Compound 22-B] | 7.00 to 8.00 | < 6.00
32 | COC[C@H]1CCN1c1cc2c(N)ncnc2c(-c2c(C)ccc(O)c2C)n1 (single isomer, unassigned) [Compound 25-B] | 7.00 to 8.00 | < 6.00
33 | COC1CN(c2cc3c(N)ncnc3c(-c3c(C)ccc(O)c3C)n2)C1 (single isomer, unassigned) [Compound 26-B] | 7.00 to 8.00 | < 6.00
34 | CCN(C)c1cc2c(N)ncnc2c(-c2c(C)ccc(O)c2C)n1 (single isomer, unassigned) [Compound 27-B] | > 8.00 | < 6.00
35 | Cc1ccc(O)c(C)c1-c1nc(-c2ccc(F)cc2F)cc2c(N)ncnc12 (single isomer, unassigned) [Compound 31-B] | > 8.00 | 6.00 to 7.00
36 | CCN(c1cc2c(N)ncnc2c(-c2c(C)ccc(O)c2C)n1)C1CC1 (single isomer, unassigned) [Compound 36-B] | > 8.00 | 6.00 to 7.00
37 | Cc1ccc(O)c(C)c1-c1nc(N(C)C2CCC2)cc2c(N)ncnc12 (single isomer, unassigned) [Compound 37-B] | > 8.00 | 6.00 to 7.00
38 | Cc1ccc(O)c(C)c1-c1nc(N2CC[C@]3(CCO3)C2)cc2c(N)ncnc12 (single isomer, unassigned) [Compound 38-B] | > 8.00 | < 6.00
39 | Cc1ccc(O)c(C)c1-c1nc(N(C)CCC#N)cc2c(N)ncnc12 (single isomer, unassigned) [Compound 41-B] | > 8.00 | < 6.00
40 | Cc1cc2c(C(N)=O)c(N)n(-c3c(C)ccc(O)c3C)c2nc1C [RP-6306, Lunresertib, reference compound] |  | 7.00 to 8.00
